Results on two compounds are retold here after US11680297B2, “Activities of multiple cancer-related pathways are associated with BRAF mutation and predict the resistance to BRAF/MEK inhibitors in melanoma cells” (THE JOHNS HOPKINS UNIVERSITY, priority 2013, dated 2023).

One test relates to RPMI-7951 cells. In words: Cell proliferation (MTT) assay. The format is cell-based. Conditions: Homo sapiens, RPMI-7951, 72 h treatment. The method, then:
(§1) After 72 h treatments, cell culture was added with 10 μl of 5 mg/ml MTT agent (3-(4,5-Dimethylthiazol-2-yl)-2,5-diphenyltetrazolium bromide, Sigma St. Louis, Mo.) and incubated for 4 h, followed by addition of 100 μl of 10% SDS solution and a further incubation overnight. The plates were then read on a microplate reader using the test wavelength of 570 nm and the reference wavelength of 670 nm. Five duplicates were done to determine each data point. GI50 was calculated as previously reported (21).

A further test deals with SK-MEL-24 cells. In words: Cell proliferation (MTT) assay. The format is cell-based. Conditions: Homo sapiens, SK-MEL-24, 72 h treatment. How it is done:
as §1

Test [1] deals with PLX4032-resistant melanoma cell lines. Conditions: two PLX4032-resistant melanoma cell lines; cited from earlier work.

For the compound `Cn1cnc2c(F)c(Nc3ccc(Br)cc3Cl)c(C(=O)NOCCO)cc21` [AZD6244, selumetinib], the GI50 in the test with RPMI-7951 cells and in the test on SK-MEL-24 cells was above 1 µM in each case. On to `CS(=O)(=O)CCNCc1ccc(-c2ccc3ncnc(Nc4ccc(OCc5cccc(F)c5)c(Cl)c4)c3c2)o1` [Lapatinib], for which, in test [1], the “effect in combination with PLX4032” value is recorded as “apparently synergistic effects”.

By GI50 is commonly meant the concentration that inhibits growth by half. A higher GI50 goes with lower sensitivity of the cells.
